How the values were obtained:
Z-138 cells [1] = experiment: Anti-cancer assay (Z-138), cell viability CellTiterGlo; type: cell-based; settings: Homo sapiens, 96 h, activity range, lower bound in pM, upper bound in nM
Method: (§1) Anticancer Activity Assay
(§2) Z-138 cells were seeded at a density of 2000-3000 cells per well in culture media (IMDM+10% FBS). PANC-1 (ATCC, CRL-1469™) and MIA PaCa-2 (ATCC, CRL-1420™) cells were seeded at a density of 200-300 cells per well in culture media (DMEM+10% FBS). Cells were seeded in opaque, flat bottomed tissue culture grade 96-well plates and Z-138 cells (suspension) were seeded and treated on the same day with various concentrations of test compounds. PANC-1 and MIA PaCa-2 cells, being adherent, were kept for overnight settlement at standard cell culture conditions (37° C., 5% CO2). On the following day, cells were treated with various concentrations of test compounds. Cells were treated with test compounds for a period of 96 h, 7 days and 10 days, for Z-138 cells, PANC-1 cells and MIA PaCa-2 cells, respectively. Cell viability was assessed using CellTiterGlo™ (Promega, USA) as per manufacturer's instructions. Relative Light Units (RLU) were read in Synergy™ 2 reader (Biotek, USA). The assay measures cellular ATP as an indicator of cell viability. RLU is proportional to the number of viable cells in the respective well.
(§3) % inhibition of cell viability was calculated relative to the vehicle control samples containing media with 0.1% DMSO alone as per the formula below. (Avg. of Untreated Control−Avg. of Test)×100 Avg. of Untreated Control
(§4) The IC50 values of individual compounds were calculated with Non Linear Regression Analysis using Graph Pad Prism (Graph Pad software, Inc, USA).
Anti-Cancer Assay (Z-138)

PANC-1 cells = experiment: Anti-cancer assay (Panc-1), cell viability CellTiterGlo; type: cell-based; settings: Homo sapiens, PANC-1, 168 h, 7 days
Method: as §1, §2, §3, §4
Anti-Cancer Assay (Panc-1)

Z-138 cells [2] = experiment: SDMA inhibition assay; type: cell-based; settings: Homo sapiens, 48 h, activity range 1.1 nM to 50 nM
Method: SDMA Inhibition Assay Protocol Z-138 cells (ATCC, CRL-3001™) were seeded at a density of 1 million cells/well in transparent, flat bottomed tissue culture grade 48-well plates. Cells were treated with various concentration of test compounds for a period of 48 h. Cell lysate was prepared using 1×CST Lysis buffer (Cell Signaling Technology, USA) and 500 ng/well/50 μL of lysate in pH 9.6 carbonate buffer was coated on 96-well Maxisorb plate and incubated overnight at 4° C. The plate was washed twice in 1×PBS containing 0.05% Tween 20 and blocked in 1% BSA for 1 h at ambient temperature. Further, the plate was incubated first with primary antibody (anti-SDMA antibody; CST #13222s) at ambient temperature for 2 h and then with HRP-conjugated secondary antibody at ambient temperature for 1 h with 2 intermittent washing steps in between.
For luminiscence based detection, HRP substrates (substrate A+substrate B in a 1:1 proportion) were added followed by luminiscence reading after 30 min in Synergy™ 2 reader (Biotek, USA).
For absorbance based detection, TMB substrate was added followed by addition of STOP solution (2N H2SO4) post colour development and absorbance ([…]) was measured in Synergy™ 2 reader (Biotek, USA). % inhibition of SDMA was calculated relative to the vehicle control samples containing media with 0.1% DMSO alone as per the formula below. (Avg. of Untreated Control−Avg. of Test)×100 Avg. of Untreated Control
as §4

PRMT5:MEP50 = PRMT5:MEP50 (Homo sapiens, UniProt O14744); experiment: PRMT5 biochemical HTRF assay (Biochemical Assay Protocol 1 / 2); settings: biotinylated H4R3 substrate, 1 μM SAM, protocol 1 or 2 not given, activity range 300 pM to 950 pM, read-out: IC50 (PRMT5 inhibition), activity range
Method: Biochemical Assay Protocol 1
(§5) Inhibitory effect of compounds on PRMT5 was assessed using HTRF detection technology in biochemical assay. Biotinylated H4R3 (residues 1-21) was used as a substrate. Compounds were pre-incubated with 15-25 ng PRMT5:MEP50 per well of a 384-well plate for 30 min at room temperature in the assay buffer containing 20 mM Bicine, pH 7.6, 25 mM NaCl, 2 mM DTT, 0.01% Chicken albumin and 0.01% Tween-20. Reaction was initiated by adding 1 μM of SAM and 50 nM biotinylated H4R3. Total assay volume was 15 μL. Reaction was continued for 120 min at room temperature. Then detection solution containing Streptavidin-Eu cryptate, anti-rabbit IgG-XL-665, Histone H4R3 Dimethyl Symmetric (H4R3me2s) Polyclonal Antibody, all prepared in HTRF detection buffer was added and further incubated for 30 min at room temperature. HTRF signal was recorded in PHERAStar microplate reader. Ratio of signal obtained at 665 nm and 620 nm was used to compute the percent inhibition of compound as follows % Inhibition=100−((Test Ratio−Negative control Ratio)/(Positive control Ratio−Negative control Ratio)*100) where Positive control=PRMT5+SAM+H4R3 Negative control=PRMT5+H4R3 Biochemical Assay Protocol 2
as §5, with “2.5” for “15-25”, “4 h” for “120 min”, “control=PRMT5+H4R3” for “control=PRMT5+H4R3 Biochemical Assay Protocol 2”

[3] = activity range, lower bound in pM, upper bound in nM

Chain of PRMT5:MEP50 (O14744 whole entry): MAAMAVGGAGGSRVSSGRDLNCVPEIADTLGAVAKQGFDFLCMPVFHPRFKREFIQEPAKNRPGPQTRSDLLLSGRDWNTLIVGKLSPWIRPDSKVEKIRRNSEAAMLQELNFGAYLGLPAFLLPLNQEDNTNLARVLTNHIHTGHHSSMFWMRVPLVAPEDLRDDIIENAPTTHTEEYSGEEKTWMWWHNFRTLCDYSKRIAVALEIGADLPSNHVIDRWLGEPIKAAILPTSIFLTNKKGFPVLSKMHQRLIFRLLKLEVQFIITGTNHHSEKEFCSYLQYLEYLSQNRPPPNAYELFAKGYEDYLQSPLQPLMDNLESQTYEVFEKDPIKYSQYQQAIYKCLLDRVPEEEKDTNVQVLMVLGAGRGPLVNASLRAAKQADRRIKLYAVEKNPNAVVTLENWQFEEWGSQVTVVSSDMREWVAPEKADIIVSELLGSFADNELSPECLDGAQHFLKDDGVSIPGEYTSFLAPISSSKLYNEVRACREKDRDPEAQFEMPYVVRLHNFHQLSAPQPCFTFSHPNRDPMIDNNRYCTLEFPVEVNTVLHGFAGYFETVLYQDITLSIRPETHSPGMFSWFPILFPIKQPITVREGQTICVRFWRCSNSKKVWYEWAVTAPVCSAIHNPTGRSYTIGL
Chain of PRMT5:MEP50 (Q9BQA1 whole entry partner): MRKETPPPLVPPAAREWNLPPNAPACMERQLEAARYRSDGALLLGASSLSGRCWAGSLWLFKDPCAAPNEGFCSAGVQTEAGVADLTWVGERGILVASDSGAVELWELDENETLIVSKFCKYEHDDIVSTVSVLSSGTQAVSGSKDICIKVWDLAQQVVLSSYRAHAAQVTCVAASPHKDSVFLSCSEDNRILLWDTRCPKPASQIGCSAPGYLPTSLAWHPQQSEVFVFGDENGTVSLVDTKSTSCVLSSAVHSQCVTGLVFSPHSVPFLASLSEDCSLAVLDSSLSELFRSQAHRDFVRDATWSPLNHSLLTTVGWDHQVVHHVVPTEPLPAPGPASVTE

With `CC(Cc1ccc2cc(Br)c(N)nc2c1)C1=C[C@@H](n2ccc3c(N)ncnc32)[C@H](O)[C@@H]1O` (stereo partly drawn) [7b, (1S,2R,5R)-3-(1-(2-Amino-3-bromoquinolin-7-yl)propan-2-yl)-5-(4-amino-7H-pyrrolo[2,3-d]pyrimidin-7-yl)cyclopent-3-ene-1,2-diol] the IC50 (Z-138 cells [1]) was 101 to 1000 pM and the IC50 (PANC-1 cells; [3]) was 300 to 20000 pM.
`Nc1nc2cc(CC[C@@]34C[C@@H]3[C@@H](n3ccc5c(N)ncnc53)[C@H](O)[C@@H]4O)c(F)cc2cc1Br` [Compound-64, (1R,2R,3S,4R,5S)-1-(2-(2-amino-3-bromo-6-fluoroquinolin-7-yl)ethyl)-4-(4-amino-7H-pyrrolo[2,3-d]pyrimidin-7-yl)bicyclo[3.1.0]hexane-2,3-diol] was tested, and the IC50 (Z-138 cells [2]) was 1.1 to 50 nM, the IC50 (Z-138 cells [1]) was 101 to 1000 pM and the IC50 (PANC-1 cells; [3]) was 300 to 20000 pM.
For `CC(Cc1ccc2cc(Br)c(N)nc2c1)[C@@]12C[C@@H]1[C@@H](n1ccc3c(N)ncnc31)[C@H](O)[C@@H]2O` (single isomer, unassigned) [Compound-76a], the IC50 (Z-138 cells [2]) was 1.1 to 50 nM, the IC50 (Z-138 cells [1]) was 101 to 1000 pM and the IC50 (PRMT5:MEP50) was 0.3 to 0.95 nM.
Compound `CC(Oc1cc(F)c2cc(Cl)c(N)nc2c1)C1=C[C@@H](n2ccc3c(N)ncnc32)[C@H](O)[C@@H]1O` (stereo partly drawn) [Compound-20b, (1S,2R,5R)-3-(1-((2-amino-3-chloro-5-fluoroquinolin-7-yl)oxy)ethyl)-5-(4-amino-7H-pyrrolo[2,3-d]pyrimidin-7-yl)cyclopent-3-ene-1,2-diol] has an IC50 (Z-138 cells [1]) of 101 to 1000 pM.
`Nc1nc2c(F)c(CCC3=C[C@@H](n4ccc5c(N)ncnc54)[C@H](O)[C@@H]3O)ccc2cc1Cl` [Compound-26, (1S,2R,5R)-3-(2-(2-amino-3-chloro-8-fluoroquinolin-7-yl)ethyl)-5-(4-amino-7H-pyrrolo[2,3-d]pyrimidin-7-yl)cyclopent-3-ene-1,2-diol] showed an IC50 (Z-138 cells [1]) of 101 to 1000 pM and an IC50 (PRMT5:MEP50) of 0.3 to 0.95 nM.
Compound `Cc1ncnc2c1ccn2[C@@H]1C=C(CCc2cc(F)c3cc(Cl)c(N)nc3c2)[C@@](C)(O)[C@H]1O` [Compound-39, (1S,2R,5R)-3-(2-(2-amino-3-chloro-5-fluoroquinolin-7-yl)ethyl)-2-methyl-5-(4-methyl-7H-pyrrolo[2,3-d]pyrimidin-7-yl)cyclopent-3-ene-1,2-diol] has an IC50 (Z-138 cells [1]) of 101 to 1000 pM and an IC50 (PANC-1 cells; activity range 20 nM to 100 nM) of 20000 to 100000 pM.
In the case of `Nc1nc2cc(CCC3=C[C@@H](n4ccc5c(N)ncnc54)[C@H](O)[C@@H]3O)c(F)cc2cc1Cl` [Compound-25, (1S,2R,5R)-3-(2-(2-amino-3-chloro-6-fluoroquinolin-7-yl)ethyl)-5-(4-amino-7H-pyrrolo[2,3-d]pyrimidin-7-yl)cyclopent-3-ene-1,2-diol], the IC50 (Z-138 cells [2]) is reported as 1.1 to 50 nM, the IC50 (PRMT5:MEP50) is reported as 0.3 to 0.95 nM and the IC50 (PANC-1 cells; [3]) is reported as 300 to 20000 pM.
With `Nc1nc2cc(CC[C@@]34C[C@@H]3[C@@H](n3ccc5c(N)ncnc53)[C@H](O)[C@@H]4O)c(F)cc2cc1Cl` [Compound-62, (1R,2R,3S,4R,5S)-1-(2-(2-Amino-3-chloro-6-fluoroquinolin-7-yl)ethyl)-4-(4-amino-7H-pyrrolo[2,3-d]pyrimidin-7-yl) bicyclo[3.1.0]hexane-2,3-diol] the IC50 (Z-138 cells [2]) was 1.1 to 50 nM, the IC50 (Z-138 cells [1]) was 101 to 1000 pM and the IC50 (PANC-1 cells; activity range 20 nM to 100 nM) was 20000 to 100000 pM.
In the case of `Cn1cc(-c2ncnc3c2ccn3[C@@H]2C=C(CCc3cc(F)c4cc(Cl)c(N)nc4c3)[C@@H](O)[C@H]2O)cn1` [Compound-32, (1S,2R,5R)-3-(2-(2-amino-3-chloro-5-fluoroquinolin-7-yl)ethyl)-5-(4-(1-methyl-1H-pyrazol-4-yl)-7H-pyrrolo[2,3-d]pyrimidin-7-yl)cyclopent-3-ene-1,2-diol], the IC50 (Z-138 cells [2]) is reported as 1.1 to 50 nM.
`Cc1ncnc2c1ccn2[C@@H]1C=C(CCc2ccc3cc(Cl)c(N)nc3c2)[C@@H](O)[C@H]1O` [Compound-21, (1S,2R,5R)-3-(2-(2-amino-3-chloroquinolin-7-yl)ethyl)-5-(4-methyl-7H-pyrrolo[2,3-d]pyrimidin-7-yl)cyclopent-3-ene-1,2-diol] showed an IC50 (PRMT5:MEP50) of 0.3 to 0.95 nM and an IC50 (PANC-1 cells; [3]) of 300 to 20000 pM.
`CC(Cc1cc(F)c2cc(Cl)c(N)nc2c1)C1=C[C@@H](n2ccc3c(N)ncnc32)[C@H](O)[C@@H]1O` (single isomer, unassigned) [Compound-33a] gave an IC50 (Z-138 cells [2]) of 1.1 to 50 nM and an IC50 (PANC-1 cells; activity range 20 nM to 100 nM) of 20000 to 100000 pM.
`Cc1ncnc2c1ccn2[C@@H]1C=C(C(C)Cc2cc(F)c3cc(Cl)c(N)nc3c2)[C@@H](O)[C@H]1O` (single isomer, unassigned) [Compound-35b] was tested, and the IC50 (Z-138 cells [2]) was 1.1 to 50 nM and the IC50 (PRMT5:MEP50) was 0.3 to 0.95 nM.
For `Nc1nc2cc(CC[C@@]34C[C@@H]3[C@@H](n3ccc5c(N)ncnc53)[C@H](O)[C@@H]4O)ccc2cc1Br` [Compound-73, (1R,2R,3S,4R,5S)-1-(2-(2-Amino-3-bromoquinolin-7-yl)ethyl)-4-(4-amino-7H-pyrrolo [2,3-d]pyrimidin-7-yl)bicyclo[3.1.0]hexane-2,3-diol], the IC50 (PRMT5:MEP50) was 0.3 to 0.95 nM and the IC50 (PANC-1 cells; [3]) was 300 to 20000 pM.
`Nc1nc2cc(CCC3=C[C@@H](n4ccc5c(N)ncnc54)[C@H](O)[C@@H]3O)ccc2cc1Br` [Compound-1, (1S,2R,5R)-3-(2-(2-Amino-3-bromoquinolin-7-yl)ethyl)-5-(4-amino-7H pyrrolo[2,3-d]pyrimidin-7-yl)cyclopent-3-ene-1,2-diol] gave an IC50 (PRMT5:MEP50) of 0.3 to 0.95 nM and an IC50 (PANC-1 cells; [3]) of 300 to 20000 pM.

— patent US11459330B2, “Substituted bicyclic heterocyclic compounds as PRMT5 inhibitors” (LUPIN LIMITED, priority 2017, dated 2022)
